Laboratory results published in PMC6829864, “Determination of Ligand Profiles for Pseudomonas aeruginosa Solute Binding Proteins” (International Journal of Molecular Sciences, 2019).
Values joined by “and” are separate entries in the source; they are usually repeats but may differ in a detail not shown here. Identical values can stand only once. Values belong to the molecule of their own block, whether it stands above or below them. Where a SMILES comes first, the peptide text is derived from it.

What was measured:
[1] = target: T1, PA2592 (Pseudomonas aeruginosa, UniProt Q9I0P5); assay: DSF thermal shift ligand screening, PA2592; format: binding, Pseudomonas aeruginosa PAO1; conditions: arrays PM2A, PM3B, PM5
T1 sequence (Q9I0P5 20-367): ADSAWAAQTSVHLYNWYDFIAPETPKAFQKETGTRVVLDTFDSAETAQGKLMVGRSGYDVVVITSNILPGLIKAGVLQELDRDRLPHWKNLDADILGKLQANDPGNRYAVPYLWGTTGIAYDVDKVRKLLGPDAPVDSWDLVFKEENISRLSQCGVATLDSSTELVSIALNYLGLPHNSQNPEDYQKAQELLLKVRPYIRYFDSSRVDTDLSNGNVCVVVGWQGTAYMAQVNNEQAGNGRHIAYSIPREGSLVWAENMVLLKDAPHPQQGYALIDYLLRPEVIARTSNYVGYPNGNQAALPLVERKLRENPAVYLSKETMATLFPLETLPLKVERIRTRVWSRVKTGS

[2] = target: T1, PA2592; assay: biochemical; format: binding
[3] = target: T2, PA4497 (dppA2) (Pseudomonas aeruginosa, UniProt Q9HVS4); format: binding; conditions: arrays PM3B, PM6, PM7, PM8
T2 sequence (Q9HVS4 25-532): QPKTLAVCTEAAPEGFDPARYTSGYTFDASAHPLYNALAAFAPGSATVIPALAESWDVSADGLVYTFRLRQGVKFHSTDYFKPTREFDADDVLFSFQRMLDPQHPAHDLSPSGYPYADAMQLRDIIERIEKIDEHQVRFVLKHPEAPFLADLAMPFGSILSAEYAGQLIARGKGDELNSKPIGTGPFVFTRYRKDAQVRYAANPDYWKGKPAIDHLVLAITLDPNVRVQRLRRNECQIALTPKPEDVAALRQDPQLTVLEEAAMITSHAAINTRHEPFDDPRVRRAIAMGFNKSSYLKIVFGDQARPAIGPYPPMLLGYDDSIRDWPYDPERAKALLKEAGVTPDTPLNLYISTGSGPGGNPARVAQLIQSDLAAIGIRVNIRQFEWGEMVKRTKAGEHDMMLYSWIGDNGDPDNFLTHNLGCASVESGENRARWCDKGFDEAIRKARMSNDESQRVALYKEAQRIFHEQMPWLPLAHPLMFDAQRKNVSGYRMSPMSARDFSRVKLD

[4] = target: T3, PA4500 (dppA3) (Pseudomonas aeruginosa, UniProt Q9HVS1); assay: Isothermal titration calorimetry, PA4500; format: binding, Pseudomonas aeruginosa PAO1; conditions: 25 °C; for Kd: read-out: KD by ITC (converted)
T3 sequence (Q9HVS1 25-533): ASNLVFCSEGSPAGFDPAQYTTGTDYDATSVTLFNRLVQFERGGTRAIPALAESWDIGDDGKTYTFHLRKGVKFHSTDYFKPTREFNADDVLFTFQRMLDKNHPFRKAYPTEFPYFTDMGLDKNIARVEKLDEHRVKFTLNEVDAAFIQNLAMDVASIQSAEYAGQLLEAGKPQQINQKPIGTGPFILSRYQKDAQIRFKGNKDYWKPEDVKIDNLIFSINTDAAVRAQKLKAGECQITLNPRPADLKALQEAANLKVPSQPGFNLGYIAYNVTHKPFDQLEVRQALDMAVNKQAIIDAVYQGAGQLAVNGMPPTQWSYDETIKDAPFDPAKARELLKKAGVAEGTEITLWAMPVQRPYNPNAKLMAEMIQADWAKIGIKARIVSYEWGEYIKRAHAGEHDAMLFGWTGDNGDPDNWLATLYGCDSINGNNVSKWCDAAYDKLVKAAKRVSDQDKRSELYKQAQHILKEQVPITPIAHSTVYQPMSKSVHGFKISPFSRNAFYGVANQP

[5] = tested on: Pseudomonas aeruginosa PAO1; format: cell-based; conditions: chemoeffector 1 mM; for Chemotaxis: capillary assay, 30 min
[6] = target: T3, PA4500 (dppA3); assay: DSF thermal shift ligand screening, PA4500; format: binding, Pseudomonas aeruginosa PAO1; conditions: arrays PM3B, PM6, PM7, PM8
[7] = target: T4, PA0222 (Pseudomonas aeruginosa, UniProt Q9I6R6); assay: Isothermal titration calorimetry, PA0222; format: binding, Pseudomonas aeruginosa PAO1; conditions: 25 °C
T4 sequence (Q9I6R6 29-352): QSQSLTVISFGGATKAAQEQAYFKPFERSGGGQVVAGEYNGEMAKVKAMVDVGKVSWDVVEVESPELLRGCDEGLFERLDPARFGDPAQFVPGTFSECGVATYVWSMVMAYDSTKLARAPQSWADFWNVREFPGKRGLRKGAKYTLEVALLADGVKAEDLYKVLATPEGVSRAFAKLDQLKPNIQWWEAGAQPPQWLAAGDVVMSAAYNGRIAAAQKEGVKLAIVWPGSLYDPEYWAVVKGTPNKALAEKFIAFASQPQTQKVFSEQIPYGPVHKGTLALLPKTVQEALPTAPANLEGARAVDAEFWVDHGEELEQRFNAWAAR

[8] = target: PA3610 (potD) (Pseudomonas aeruginosa, UniProt Q9HY16); assay: Isothermal titration calorimetry, PA3610; format: binding, Pseudomonas aeruginosa PAO1; conditions: 25 °C, read-out: KD by ITC (converted)
PA3610 (potD), sequence (Q9HY16 21-354): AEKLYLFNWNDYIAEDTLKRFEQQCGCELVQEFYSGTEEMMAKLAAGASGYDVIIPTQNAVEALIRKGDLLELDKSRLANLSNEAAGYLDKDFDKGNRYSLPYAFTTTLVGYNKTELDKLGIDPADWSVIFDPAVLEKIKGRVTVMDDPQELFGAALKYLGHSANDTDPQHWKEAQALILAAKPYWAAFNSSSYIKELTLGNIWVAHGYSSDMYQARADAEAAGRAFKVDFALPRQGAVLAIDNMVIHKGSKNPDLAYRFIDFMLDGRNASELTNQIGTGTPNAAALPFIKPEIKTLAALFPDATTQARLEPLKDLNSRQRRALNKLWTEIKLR

[9] = target: PA3889 (opuCC) (Pseudomonas aeruginosa, UniProt Q9HXC4); assay: Isothermal titration calorimetry, PA3889; format: binding, Pseudomonas aeruginosa PAO1; conditions: 25 °C
PA3889 (opuCC), sequence (Q9HXC4 24-311): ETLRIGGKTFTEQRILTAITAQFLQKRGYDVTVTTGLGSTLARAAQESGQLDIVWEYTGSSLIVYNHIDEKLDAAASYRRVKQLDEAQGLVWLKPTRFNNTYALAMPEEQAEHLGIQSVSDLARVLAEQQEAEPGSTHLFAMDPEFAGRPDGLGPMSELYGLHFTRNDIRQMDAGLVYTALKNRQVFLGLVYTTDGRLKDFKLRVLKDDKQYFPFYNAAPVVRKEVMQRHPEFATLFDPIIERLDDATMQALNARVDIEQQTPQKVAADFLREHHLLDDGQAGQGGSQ

[10] = target: PA1074 (braC) (Pseudomonas aeruginosa, UniProt P21175); assay: biochemical; format: binding, Pseudomonas aeruginosa PAO1
PA1074 (braC), sequence (P21175 27-373): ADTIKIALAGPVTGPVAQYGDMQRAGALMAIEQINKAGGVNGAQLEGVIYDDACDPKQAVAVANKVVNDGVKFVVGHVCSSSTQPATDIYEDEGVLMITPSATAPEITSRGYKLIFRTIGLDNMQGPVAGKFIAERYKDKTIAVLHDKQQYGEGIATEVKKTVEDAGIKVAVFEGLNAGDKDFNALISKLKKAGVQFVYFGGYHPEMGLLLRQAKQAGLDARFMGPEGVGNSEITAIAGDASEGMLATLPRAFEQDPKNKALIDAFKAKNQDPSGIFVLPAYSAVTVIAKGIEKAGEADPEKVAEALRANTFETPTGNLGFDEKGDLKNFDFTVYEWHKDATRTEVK

[11] = target: PA4913 (Pseudomonas aeruginosa, UniProt Q9HUQ0); assay: DSF thermal shift ligand screening, PA4913; format: binding, Pseudomonas aeruginosa PAO1; conditions: Tm change vs ligand-free protein
PA4913, sequence (Q9HUQ0 28-374): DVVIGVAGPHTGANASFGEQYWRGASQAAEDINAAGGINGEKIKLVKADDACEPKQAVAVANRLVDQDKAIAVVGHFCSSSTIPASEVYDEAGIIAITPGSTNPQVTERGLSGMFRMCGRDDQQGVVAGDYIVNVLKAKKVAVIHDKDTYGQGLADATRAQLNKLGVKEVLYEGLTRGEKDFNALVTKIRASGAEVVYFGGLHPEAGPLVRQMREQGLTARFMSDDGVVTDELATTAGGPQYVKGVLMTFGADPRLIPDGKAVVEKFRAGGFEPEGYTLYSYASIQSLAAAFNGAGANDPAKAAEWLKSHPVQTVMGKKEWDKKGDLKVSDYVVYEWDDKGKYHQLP

Structure (SMILES): NCCCCN=C(N)N [Agmatine]
Tm DSF (Tm increase) [1]: 5.3 °C | Kd [2]: 15000 nM

Structure (SMILES): C[C@H](N)C(=O)N[C@@H](C)C(=O)N[C@@H](C)C(=O)O [Ala-Ala-Ala]
Tm DSF (Tm increase) [3]: 9.1 °C | No Binding Observed by ITC [4]: absence of binding | Chemotaxis ([5]; except molybdate 0.1 mM): No (Positive chemotaxis was considered when the number of bacterial cells per capillary was superior to 5000.)

Structure (SMILES): C[C@H](N)C(=O)N[C@@H](C)C(=O)O [Ala-Ala] (H-Ala-Ala-OH)
Tm DSF (Tm increase) [6]: 11 °C and 11.3 °C | Kd [4]: 210 ± 20 nM

Structure (SMILES): C[C@H](N)C(=O)NCC(=O)O [Ala-Gly] (H-Ala-Gly-OH)
Chemotaxis ([5]; except molybdate 0.1 mM): No (Positive chemotaxis was considered when the number of bacterial cells per capillary was superior to 5000.)

Structure (SMILES): C[C@H](N)C(=O)N[C@@H](Cc1c[nH]cn1)C(=O)O [Ala-His] (H-Ala-His-OH; N-terminus and C-terminus assumed)
Tm DSF (Tm increase) [6]: 3.0 °C | Kd [4]: 7400 nM

Structure (SMILES): C[C@H](N)C(=O)N[C@@H](Cc1ccccc1)C(=O)O [Ala-Phe]
Tm DSF (Tm increase) [6]: 2.0 °C | Kd [4]: 6100 nM

Structure (SMILES): C[C@H](N)C(=O)N[C@H](C(=O)O)[C@@H](C)O [Ala-Thr] (H-Ala-Thr-OH; N-terminus and C-terminus assumed)
Tm DSF (Tm increase) [6]: 7 °C | Kd [4]: 980 nM

Structure (SMILES): CCCC(=O)O [Butyrate, butyric acid]
No Binding Observed by ITC [7]: failed to bind

Structure (SMILES): NCCCCCN [Cadaverine]
Kd [8]: 65000 nM

Structure (SMILES): C[N+](C)(C)CCO [Choline]
No Binding Observed by ITC [9]: no binding heats were observed

Structure (SMILES): C[C@@H](N)C(=O)O [D-Ala]
No Binding Observed by ITC [10]: no binding was detected | Tm DSF (Tm increase) [11]: 6.8 °C | Chemotaxis ([5]; except molybdate 0.1 mM): Yes [15, 41] Yes [15, 41] Yes [15, 41] Yes [15, 41] Yes [15, 41] Yes Yes [15, 41] n. d. (Positive chemotaxis was considered when the number of bacterial cells per capillary was superior to 5000.) | Chemotaxis response in words ([5]; except molybdate 0.1 mM): very strong taxis

Structure (SMILES): N[C@@H](CCC(=O)O)C(=O)N[C@@H](CCC(=O)O)C(=O)O [Glu-Glu] (H-Glu-Glu-OH)
No Binding Observed by ITC [4]: absence of binding

Structure (SMILES): C[C@H](NC(=O)CNC(=O)CN)C(=O)O [Gly-Gly-Ala]
Tm DSF (Tm increase) [3]: 7.6 °C | Chemotaxis ([5]; except molybdate 0.1 mM): No (Positive chemotaxis was considered when the number of bacterial cells per capillary was superior to 5000.)

Structure (SMILES): NCC(=O)NCC(=O)NCC(=O)O [Gly-Gly-Gly] (H-Gly-Gly-Gly-OH)
Tm DSF (Tm increase) [3]: 4.4 °C

Tm DSF (Tm increase) [3]: 5.1 °C
Structure (SMILES): CC[C@H](C)[C@H](NC(=O)CNC(=O)CN)C(=O)O [Gly-Gly-Ile] (H-Gly-Gly-Ile-OH)

Tm DSF (Tm increase) [3]: 3.7 °C
Structure (SMILES): NCC(=O)NCC(=O)N[C@@H](Cc1ccccc1)C(=O)O [Gly-Gly-Phe] (H-Gly-Gly-Phe-OH)

Tm DSF (Tm increase) [3]: 6.6 °C
Structure (SMILES): NCC(=O)NC(Cc1ccccc1)C(=O)NC(Cc1ccccc1)C(=O)O (stereo not drawn) [Gly-Phe-Phe] (H-Gly-Phe-Phe-OH; configuration not given here)

Structure (SMILES): NCC(=O)NC(CO)C(=O)O (centres unmarked) [Gly-Ser]
Chemotaxis ([5]; except molybdate 0.1 mM): Yes (Positive chemotaxis was considered when the number of bacterial cells per capillary was superior to 5000.)

Structure (SMILES): CC(C)[C@H](NC(=O)CN)C(=O)O [Gly-Val] (H-Gly-Val-OH)
Tm DSF (Tm increase) [6]: 2.0 °C | Kd [4]: 6300 nM

Structure (SMILES): C[C@H](N)C(=O)O [L-Ala]
Kd [10]: 210 nM | No Binding Observed by ITC [4]: absence of binding | Tm DSF (Tm increase) [11]: 12.7 °C

Structure (SMILES): N[C@@H](CCO)C(=O)O [L-Homoserine]
Kd [10]: 720 nM | Chemotaxis response, number of cells per capillary ([5]; corrected for buffer capillaries): more than 300,000 cells per capillary

Structure (SMILES): CC[C@H](C)[C@H](N)C(=O)O [L-Ile]
Kd [10]: 280 nM

Structure (SMILES): CC(C)[C@H](N)C(=O)O [L-Val]
Kd [10]: 70 nM | Tm DSF (Tm increase) [11]: 4.1 °C

Structure (SMILES): CC(C)C[C@H](N)C(=O)NCC(=O)NCC(=O)O [Leu-Gly-Gly] (H-Leu-Gly-Gly-OH)
Tm DSF (Tm increase) [3]: 3.2 °C | Chemotaxis ([5]; except molybdate 0.1 mM): Yes (Positive chemotaxis was considered when the number of bacterial cells per capillary was superior to 5000.)
